According to BigSolDB 2.1:

Cc1[nH]nc2cc([N+](=O)[O-])ccc12
solubility (mole fraction)
Conditions	in DMF	in THF	in acetone	in acetonitrile	in ethanol	in ethyl acetate	in n-propanol	in water
278.15 K	0.149	0.0579	0.0251	0.0093	0.0042	0.016	0.0051	2.1e-05
283.15 K	0.161	0.0615	0.0295	0.0109	0.0051	0.0183	0.0061	2.7e-05
288.15 K	0.177	0.0671	0.0336	0.0123	0.0059	0.021	0.0073	3.6e-05
293.15 K	0.195	0.0726	0.0382	0.0139	0.007	0.0232	0.0084	4.71e-05
298.15 K	0.215	0.0781	0.0433	0.0156	0.0083	0.0255	0.0096	6.31e-05
303.15 K	0.236	0.0845	0.0481	0.0174	0.01	0.0295	0.0108	8.01e-05
308.15 K	0.259	0.0903	0.0538	0.019	0.012	0.0328	0.012	9.91e-05
313.15 K	0.283	0.097	0.0595	0.0206	0.014	0.0363	0.0136	0.000123
318.15 K	0.309	0.105	0.0661	0.0222	0.0164	0.0394	0.0155	0.000147
323.15 K	0.337	0.113	0.0738	0.0239	0.0194	0.043	0.0176	0.000179
328.15 K	0.371	0.123	0.0829	0.0254	0.0227	0.0456	0.0204	0.000218
